Here are results for eight compounds from publication PMC8391127, “Triterpenoid–PEG Ribbons Targeting Selectivity in Pharmacological Effects” (Biomedicines, 2021).

For one data set, the system named is Staphylococcus aureus. Kind of data set: Antimicrobial screening, resazurine test. The class given is cell-based. Conditions: Staphylococcus aureus, read-out: Inhibition of the microorganism. On the procedure:
(§1) The resazurine test was used to evaluate this activity.
(§2) The cell inoculum was made in Mueller–Hinton broth (10 mL). Colonies of cells were inoculated from the solid medium that was cultivated for 24 h under optimum conditions. A part of the inoculum was diluted to get suspension with an optical density 0.6 to 0.9 McF. An aliquot amount (1 mL) was taken and diluted with additional volume of the medium (19 mL). The stored solutions of the tested compounds were made at a concentration c = 200 µg.mL^−1. The stored suspensions of the cells, MHB medium, solutions of the antibiotics specific for the given bacteria (vancomycin for S. aureus and E. faecalis, kanamycin for E. coli and P. aeruginosa, and tetracycline for B. cereus), and the solutions of the compounds were pipetted into the microtitration plates. Subsequently, a concentration sequence of the tested compounds was made (c = 100, 50, and 25 µg.mL^−1). The content of the microtitration plates was cultivated for 24 h under optimum conditions for the given bacteria. A solution of resazurine was made, based on a dilution of its stored solution (c = 0.15 mg.mL^−1; 2 mL) into the MHB medium (18 mL). Then, it was pipetted into the microtitration plates that were cultivated for an additional 1 h. Finally, fluorescence measurement (excitation at 560 nm, emission at 590 nm) was made, and the inhibition of the bacterium was determined.
(§3) 2. Antimicrobial screening tests
(§4) Antimicrobial activity of the target molecular ribbons 8a, 12a, 8b, 12b, 4c, 6c, 6d and 8d, and […]
(§5) aeruginosa, Staphylococcus aureus and Enterococcus faecalis. The resazurine test was used to […]
(§6) ribbons which have been achieved in this investigation.
(§7) Table S1. Antimicrobial activity, inhibition of the microorganism [%]
(§8) Comp. Staphylococcus aureus Comp. Escherichia coli […]
(§9) µg·mL-1 µg·mL-1 µg·mL-1 µg·mL-1 µg·mL-1 µg·mL-1
(§10) Comp. Bacillus cereus Comp. Pseudomonas aeruginosa

The test system of the next data set is Enterococcus faecalis. Put plainly: Antimicrobial screening, resazurine test. The class given is cell-based. Conditions: for inhibition at 25 µg/mL / inhibition at 50 µg/mL / inhibition at 100 µg/mL: Enterococcus faecalis, read-out: Inhibition of the microorganism. On the procedure:
as §1, §2, §3, §4, §5, §6, §7, §8, §9, §10
A general note: Resazurin is reduced to fluorescent resorufin, in cell work by metabolically active cells.

A short description of data set [1]: Self-assembly by UV-VIS spectrometry in methanol/water mixtures. The class given is physicochemical. Conditions: 0-140 h. Here is the method: The self-assembly of the selected compounds 8a, 12a, 8b, 12b, 4c, 6c, 6d, and 8d was measured using UV absorption in methanol/water mixtures with a constant concentration of the studied compound for 7 days in one-hour intervals on the first day, and in 24 h intervals all following days. The stock solutions of the studied compounds were prepared at a concentration of 1 mg·mL^−1 in water. Then, a series of methanol/water mixtures were prepared starting from a methanol/water ratio 100/0 down to 0/100 in 20% steps. The stock solutions of the studied compounds (0.15 mL) were added separately to each vial containing methanol/water mixtures (3 mL), and the UV spectra were recorded in the wavelength range of 200–400 nm. […] For the compounds 8a, 12a, 12b and 6d, the details are presented in the Supplementary Material; see Figure S2.
Supramolecular self-assembly was studied on the basis of the UV-VIS spectra of the compounds in several methanol/water mixtures stepwise during the time interval 0-140 h. Here we show compounds 8a, 12a, 12b and 6d as examples, with which the irregularities in the UV-VIS spectra were either well pronounced (8a and 12a; Figure S2), or no substantial irregularity was detected (12b and 6d).
Figure S2. UV-VIS spectra of 8a (top) and 12a (bottom) measured in the interval 0-140 h.
During that time interval a new maximum appeared at 300 nm wavelength, and the shape of the curves is different than in any of the other intervals of measurement. […]

The subject of the next data set is Pseudomonas aeruginosa. Kind of data set: Antimicrobial screening, resazurine test. The class given is cell-based. On the procedure: as §1, §2, §3, §4, §5, §6, §7, §8, §9, §10
A further data set deals with Bacillus cereus. Put plainly: Antimicrobial screening, resazurine test. The class given is cell-based. The conditions noted are these: for inhibition at 25 µg/mL / inhibition at 50 µg/mL / inhibition at 100 µg/mL: Bacillus cereus. On the procedure:
as §1, §2, §3, §4, §5, §6, §7, §8, §9, §10

For another data set, the system named is Escherichia coli. Put plainly: Antimicrobial screening, resazurine test. The class given is cell-based. Conditions: Escherichia coli, read-out: Inhibition of the microorganism. On the procedure: as §1, §2, §3, §4, §5, §6, §7, §8, §9, §10
[2] abbreviates: P. aeruginosa, c = 25 µg·mL-1, read-out: Inhibition of the microorganism.
Where [3] appears, read: P. aeruginosa, c = 50 µg·mL-1, read-out: Inhibition of the microorganism.
Where [4] appears, read: P. aeruginosa, c = 100 µg·mL-1, read-out: Inhibition of the microorganism.
The mark [5] stands for this setting: B. cereus, c = 25 µg·mL-1, read-out: Inhibition of the microorganism.
The mark [6] stands for this setting: B. cereus, c = 50 µg·mL-1, read-out: Inhibition of the microorganism.
Setting [7] is: B. cereus, c = 100 µg·mL-1, read-out: Inhibition of the microorganism.
Setting [8] is: read-out: Inhibition of the microorganism.

Like-named read-outs stand apart in the source and are kept apart here. Where only a bound is given, the exact number is not on record here.

In the case of `CN[C@H](CC(C)C)C(=O)N[C@H]1C(=O)N[C@@H](CC(N)=O)C(=O)N[C@H]2C(=O)N[C@H]3C(=O)N[C@H](C(=O)N[C@H](C(=O)O)c4cc(O)cc(O)c4-c4cc3ccc4O)[C@H](O)c3ccc(c(Cl)c3)Oc3cc2cc(c3O[C@@H]2O[C@H](CO)[C@@H](O)[C@H](O)[C@H]2O[C@H]2C[C@](C)(N)[C@H](O)[C@H](C)O2)Oc2ccc(cc2Cl)[C@H]1O` [vancomycin, reference compound], the inhibition at 25 µg/mL in the data set on Staphylococcus aureus and in the data set with Enterococcus faecalis was 99% each time.

As to `CC1(C)C=C2C3CC[C@@H]4[C@@]5(C)CC[C@H](OCc6cn(CCOCCOCCOCCNC(=O)[C@]78CCC(C)(C)C=C7C7CC[C@@H]9[C@@]%10(C)CC[C@H](OCc%11cn(CCOCCOCCOCCNC(=O)[C@]%12%13CCC(C)(C)C=C%12C%12CC[C@@H]%14[C@@]%15(C)CC[C@H](O)C(C)(C)[C@@H]%15CC[C@@]%14(C)[C@]%12(C)CC%13)nn%11)C(C)(C)[C@@H]%10CC[C@@]9(C)[C@]7(C)CC8)nn6)C(C)(C)[C@@H]5CC[C@@]4(C)[C@]3(C)CC[C@@]2(C(=O)O)CC1` (some centres unmarked) [12b], the “Irregularity in UV-VIS spectra (self-assembly)” value in data set [1] is “No substantial irregularity was detected”.

As for `CC1(C)CC[C@]2(C(=O)O)CC[C@]3(C)C(=CC[C@@H]4[C@@]5(C)CC[C@H](OCc6cn(CCOCCOCCOCCNC(=O)[C@]78CCC(C)(C)CC7C7=CC[C@@H]9[C@@]%10(C)CC[C@H](OCc%11cn(CCOCCOCCOCCNC(=O)[C@]%12%13CCC(C)(C)CC%12C%12=CC[C@@H]%14[C@@]%15(C)CC[C@H](O)C(C)(C)[C@@H]%15CC[C@@]%14(C)[C@]%12(C)CC%13)nn%11)C(C)(C)[C@@H]%10CC[C@@]9(C)[C@]7(C)CC8)nn6)C(C)(C)[C@@H]5CC[C@]43C)C2C1` (some centres unmarked) [12a], the “Irregularity in UV-VIS spectra (self-assembly)” value in data set [1] was “Irregularities were detected”.

Regarding `CC1(C)C=C2[C@H]3CC[C@@H]4[C@@]5(C)CCC(=O)C(C)(C)[C@@H]5CC[C@@]4(C)[C@]3(C)CC[C@@]2(C(=O)O)CC1` [1c, moronic acid, reference compound], the inhibition (as a rule, the relative decrease from the control value, in per cent) at 25 µg/mL was in the range of 0 to 1% in the data set on Staphylococcus aureus (S. aureus, c = 25 µg·mL-1); 0 to 1% with Pseudomonas aeruginosa (setting [2]); 0 to 1% in the data set on Bacillus cereus (setting [5]); 0 to 1% in the data set with Enterococcus faecalis (E. faecalis, c = 25 µg·mL-1); 0 to 1% in the data set on Escherichia coli (E. coli, c = 25 µg·mL-1). Further, the inhibition at 50 µg/mL in the data set with Staphylococcus aureus (S. aureus, c = 50 µg·mL-1) is 3 ± 0.5%; in the data set with Pseudomonas aeruginosa (setting [3]), 0 to 1%; in the data set on Bacillus cereus (setting [6]), 15 ± 2.3%; in the data set on Enterococcus faecalis (E. faecalis, c = 50 µg·mL-1), 0 to 1%; with Escherichia coli (E. coli, c = 50 µg·mL-1), 0 to 1%. Further, the inhibition at 100 µg/mL was 10 ± 1.5% in the data set with Staphylococcus aureus (S. aureus, c = 100 µg·mL-1); 0 to 1% in the data set with Pseudomonas aeruginosa (setting [4]); 66 ± 9.9% with Bacillus cereus (setting [7]); 0 to 1% with Enterococcus faecalis (E. faecalis, c = 100 µg·mL-1); 0 to 1% in the data set on Escherichia coli (E. coli, c = 100 µg·mL-1).

Regarding `CN(C)[C@@H]1C(O)=C(C(N)=O)C(=O)[C@@]2(O)C(O)=C3C(=O)c4c(O)cccc4[C@@](C)(O)[C@H]3C[C@@H]12` [tetracycline, reference compound], the inhibition at 25 µg/mL in the data set with Bacillus cereus (setting [5]) worked out at 99%.

For the compound `CC1(C)C=C2C3CC[C@@H]4[C@@]5(C)CC[C@H](OCc6cn(CCOCCOCCOCCNC(=O)[C@]78CCC(C)(C)C=C7C7CC[C@@H]9[C@@]%10(C)CC[C@H](O)C(C)(C)[C@@H]%10CC[C@@]9(C)[C@]7(C)CC8)nn6)C(C)(C)[C@@H]5CC[C@@]4(C)[C@]3(C)CC[C@@]2(C(=O)O)CC1` (some centres unmarked) [8b], the inhibition at 25 µg/mL with Staphylococcus aureus (S. aureus, c = 25 µg·mL-1) is 0 to 1%; in the data set with Pseudomonas aeruginosa (setting [2]) it was 33 ± 5%; in the data set on Bacillus cereus (setting [5]), 16 ± 2.4%; with Enterococcus faecalis (E. faecalis, c = 25 µg·mL-1), 20 ± 3%; in the data set on Escherichia coli (E. coli, c = 25 µg·mL-1), 17 ± 2.6%. In addition, the inhibition at 50 µg/mL worked out at 24 ± 3.6% with Staphylococcus aureus (S. aureus, c = 50 µg·mL-1); 59 ± 8.9% in the data set on Pseudomonas aeruginosa (setting [3]); 38 ± 5.7% in the data set on Bacillus cereus (setting [6]); 43 ± 6.5% in the data set on Enterococcus faecalis (E. faecalis, c = 50 µg·mL-1); 25 ± 3.8% in the data set with Escherichia coli (E. coli, c = 50 µg·mL-1). The inhibition at 100 µg/mL with Staphylococcus aureus (S. aureus, c = 100 µg·mL-1) is 77 ± 11.6%; in the data set on Pseudomonas aeruginosa (setting [4]) it was 60 ± 9%; with Bacillus cereus (setting [7]), 0 to 1%; in the data set on Enterococcus faecalis (E. faecalis, c = 100 µg·mL-1), 54 ± 8.1%; in the data set on Escherichia coli (E. coli, c = 100 µg·mL-1), 31 ± 4.7%.

`CC1(C)CC[C@]2(C(=O)O)CC[C@]3(C)C(=CC[C@@H]4[C@@]5(C)CC[C@H](O)C(C)(C)[C@@H]5CC[C@]43C)[C@@H]2C1` [1a, Oleanolic acid, reference compound]: the inhibition at 25 µg/mL was 0 to 1% in the data set on Staphylococcus aureus (S. aureus, c = 25 µg·mL-1); 0 to 1% in the data set on Pseudomonas aeruginosa (setting [2]); greater than 77% with Bacillus cereus (setting [5]); greater than 87% in the data set on Enterococcus faecalis (E. faecalis, c = 25 µg·mL-1); 0 to 1% with Escherichia coli (E. coli, c = 25 µg·mL-1). The inhibition at 50 µg/mL was 8 ± 1.2% with Staphylococcus aureus (S. aureus, c = 50 µg·mL-1); 0 to 1% in the data set on Pseudomonas aeruginosa (setting [3]); 77 ± 11.6% with Bacillus cereus (setting [6]); 90 ± 13.5% with Enterococcus faecalis (E. faecalis, c = 50 µg·mL-1); 0 to 1% with Escherichia coli (E. coli, c = 50 µg·mL-1). The inhibition at 100 µg/mL in the data set with Staphylococcus aureus (S. aureus, c = 100 µg·mL-1) was 33 ± 5%; with Pseudomonas aeruginosa (setting [4]), 0 to 1%; in the data set on Bacillus cereus (setting [7]) it was 77 ± 11.6%; with Enterococcus faecalis (E. faecalis, c = 100 µg·mL-1) it was 89 ± 13.4%; in the data set with Escherichia coli (E. coli, c = 100 µg·mL-1) it was 0 to 1%. Besides, the “Inhibition of the microorganism” value with Bacillus cereus (B. cereus, c = 25 µg·mL-1) worked out at 76 ± 11.4%; in the data set on Enterococcus faecalis (E. faecalis, c = 25 µg·mL-1), 87 ± 13.0%.

`CC1(C)C=C2[C@H]3CC[C@@H]4[C@@]5(C)CC[C@H](O)C(C)(C)[C@@H]5CC[C@@]4(C)[C@]3(C)CC[C@@]2(C(=O)O)CC1` [1b, morolic acid, reference compound]: the inhibition at 25 µg/mL in the data set with Staphylococcus aureus was 21 ± 3.2%; in the data set on Pseudomonas aeruginosa (setting [8]) it was 0 to 1%; with Bacillus cereus (read-out: Inhibition of the microorganism, B. cereus, c = 25 µg·mL-1) it was greater than 77%; in the data set with Enterococcus faecalis, 38 ± 5.7%; in the data set with Escherichia coli it was 0 to 1%. The inhibition at 50 µg/mL was 17 ± 2.6% with Staphylococcus aureus; 0 to 1% with Pseudomonas aeruginosa (setting [8]); 76 ± 11.4% in the data set on Bacillus cereus (read-out: Inhibition of the microorganism, B. cereus, c = 50 µg·mL-1); 64 ± 9.6% in the data set on Enterococcus faecalis; 2 ± 0.3% in the data set with Escherichia coli. Moreover, the inhibition at 100 µg/mL with Staphylococcus aureus is 47 ± 7%; in the data set with Pseudomonas aeruginosa (setting [8]) it was 0 to 1%; in the data set with Bacillus cereus (read-out: Inhibition of the microorganism, B. cereus, c = 100 µg·mL-1), 75 ± 11.3%; in the data set with Enterococcus faecalis it was 69 ± 10.4%; in the data set with Escherichia coli, 0 to 1%. The “Inhibition of the microorganism” value in the data set with Bacillus cereus (B. cereus, c = 25 µg·mL-1) is on record as 78 ± 11.7%.
